Data reported in ChEMBL document CHEMBL4251621, “Design, synthesis and QSAR study of novel isatin analogues inspired Michael acceptor as potential anticancer compounds” (Eur J Med Chem, 2018).
Activity calls are given as the source filed them. The rule behind the calls is not given here.

Experiments:
[1] = tested on: BGC-823; assay: Cytotoxicity against human BGC823 cells assessed as cell growth inhibition after 72 hrs by MTT assay; format: functional, cell-based; conditions: BGC-823, 72 h
[2] = tested on: SGC-7901; assay: Cytotoxicity against human SGC7901 cells assessed as cell growth inhibition after 72 hrs by MTT assay; format: functional, cell-based; conditions: SGC-7901, 72 h
[3] = tested on: NCI-H460; assay: Cytotoxicity against human NCI-H460 cells assessed as cell growth inhibition after 72 hrs by MTT assay; format: functional, cell-based; conditions: NCI-H460, 72 h
[4] = tested on: NCI-H460; assay: Growth inhibition of human NCI-H460 cells assessed as reduction in cell viability at 5 to 10 uM incubated for 24 to 72 hrs by MTT assay; format: functional, cell-based
[5] = tested on: NCI-H460; assay: Anti-growth activity against human NCI-H460 cells assessed as reduction in colony formation at 10 uM after 48 hrs by crystal violet-based colony forming assay; format: functional, cell-based
[6] = tested on: NCI-H460; assay: Anti-migratory activity against human NCI-H460 cells at 10 uM incubated for 48 hrs by wound healing assay; format: functional, cell-based
[7] = tested on: NCI-H460; assay: Anti-growth activity against human NCI-H460 cells assessed as reduction in colony formation at 20 uM after 18 hrs by crystal violet-based colony forming assay; format: functional, cell-based
[8] = tested on: NCI-H460; assay: Anti-migratory activity against human NCI-H460 cells at 20 uM incubated for 48 hrs by wound healing assay; format: functional, cell-based
[9] = tested on: Mus musculus; assay: Toxicity in BALB/C nu nude mouse xenografted with human NCI-H460 cells assessed as histopathological changes in liver at 15 mg/kg, ip administered everyday for 15 days by hematoxylin and eosin staining based light microscopic analysis; format: organism-based; conditions: in vivo, 360 h
[10] = tested on: Mus musculus; assay: Toxicity in BALB/C nu nude mouse xenografted with human NCI-H460 cells assessed as histopathological changes in lung at 15 mg/kg, ip administered everyday for 15 days by hematoxylin and eosin staining based light microscopic analysis; format: organism-based; conditions: in vivo, 360 h
[11] = tested on: NCI-H460; assay: Induction of apoptosis in tumor of human NCI-H460 cells xenografted in BALB/C nu nude mouse assessed as downregulation of bcl2 expression at 15 mg/kg, ip administered everyday for 15 days by Western blot analysis; format: functional, organism-based
[12] = tested on: NCI-H460; assay: Anti-growth activity against human NCI-H460 cells assessed as reduction in colony formation after 18 hrs by crystal violet-based colony forming assay; format: functional, cell-based
[13] = tested on: NCI-H460; assay: Anti-migratory activity against human NCI-H460 cells incubated for 48 hrs by wound healing assay; format: functional, cell-based
[14] = tested on: NCI-H460; assay: Cell cycle arrest in human NCI-H460 cells assessed as accumulation at G2/M phase at 5 to 20 uM after 48 hrs by propidium iodide staining-based flow cytometry; format: functional
[15] = tested on: NCI-H460; assay: Antitumor activity against human NCI-H460 cells xenografted in BALB/C-nu nude mouse assessed as reduction in tumor growth at 15 mg/kg, ip administered every day for 15 days; format: functional, organism-based
[16] = tested on: Mus musculus; assay: Toxicity in BALB/C nu nude mouse xenografted with human NCI-H460 cells assessed as weight loss at 15 mg/kg, ip administered everyday for 15 days measured every 2 days; format: organism-based; conditions: in vivo
[17] = tested on: Mus musculus; assay: Toxicity in BALB/C nu nude mouse xenografted with human NCI-H460 cells assessed as induction of abnormal behavior at 15 mg/kg, ip administered everyday for 15 days; format: organism-based; conditions: in vivo, 360 h

Q: Which results are given for `O=C1Nc2ccccc2/C1=C\C(=O)c1ccc(Br)cc1`?
A: IC50 [1]: 9 µM; IC50 [2]: 10.2 µM; IC50 [3]: 11.5 µM

Q: Which results are given for `O=C1Nc2ccccc2/C1=C\C(=O)c1ccc(Cl)c(Cl)c1`?
A: IC50 [1]: 13.2 µM; IC50 [2]: 17.8 µM; IC50 [3]: 13.7 µM

Q: For `O=C1Nc2ccccc2/C1=C\C(=O)c1ccc(F)cc1`, which IC50 [1] is on record?
A: 11.1 µM

Q: And the IC50 [2]?
A: 12.4 µM

Q: And the IC50 [3]?
A: 7.5 µM

Q: What does the source list for `CC(=O)Nc1cccc(C(=O)/C=C2/C(=O)Nc3ccccc32)c1`?
A: IC50 [1]: 9.1 µM; IC50 [2]: 14.1 µM; IC50 [3]: 12.3 µM

Q: Which results are given for `O=C1Nc2ccccc2/C1=C\C(=O)c1ccccc1`?
A: IC50 [1]: 13.2 µM; IC50 [2]: 9.3 µM; IC50 [3]: 10.4 µM

Q: Which IC50 [1] does the source give for `COc1cc(O)c(CC=C(C)C)c(O)c1C(=O)/C=C/c1ccc(O)cc1` [XANTHOHUMOL] here?
A: 7.8 µM

Q: What about the IC50 [2] of the same compound?
A: 10 µM

Q: What about the IC50 [3] of the same compound?
A: 6.9 µM

Q: And the “growth inhibition (GI)” value [4]?
A: Active

Q: What about the Activity [5] of the same compound?
A: Active

Q: And the Activity [6]?
A: Active

Q: What does the source list for `CC(C)C(=O)Nc1cccc(C(=O)/C=C2/C(=O)Nc3ccccc32)c1`?
A: IC50 [1]: 6.2 µM; IC50 [2]: 8.6 µM; IC50 [3]: 9.7 µM

Q: With `COc1ccc(C(=O)/C=C2/C(=O)Nc3ccccc32)c(OC)c1` as the compound, how does the IC50 [1] read?
A: 9.2 µM

Q: What about the IC50 [2] of the same compound?
A: 11.5 µM

Q: What about the IC50 [3] of the same compound?
A: 5.4 µM

Q: Which IC50 [1] does the source give for `O=C1Nc2ccccc2/C1=C\C(=O)c1cc(F)cc(F)c1` here?
A: 15.7 µM

Q: What about the IC50 [2] of the same compound?
A: 17.6 µM

Q: And the IC50 [3]?
A: 13.3 µM

Q: Which results are given for `CCC(=O)Nc1cccc(C(=O)/C=C2/C(=O)Nc3ccccc32)c1`?
A: IC50 [1]: 7.5 µM; IC50 [2]: 11.5 µM; IC50 [3]: 10.3 µM

Q: Which IC50 [1] does the source give for `O=C1Nc2ccccc2/C1=C\C(=O)c1cc(Cl)ccc1Cl` here?
A: 53.7 µM

Q: And the IC50 [2]?
A: 56.3 µM

Q: What about the IC50 [3] of the same compound?
A: 61.6 µM

Q: How did the IC50 [1] turn out when `COc1cc(C(=O)/C=C2/C(=O)Nc3ccccc32)cc(OC)c1OC` was run?
A: 13.9 µM

Q: What about the IC50 [2] of the same compound?
A: 18.3 µM

Q: What about the IC50 [3] of the same compound?
A: 10.9 µM

Q: How did the IC50 [1] turn out when `COc1ccccc1C(=O)/C=C1/C(=O)Nc2ccccc21` was run?
A: 10.2 µM

Q: What about the IC50 [2] of the same compound?
A: 16.3 µM

Q: What about the IC50 [3] of the same compound?
A: 10.2 µM

Q: With `O=C1Nc2ccccc2/C1=C\C(=O)c1ccccc1Br` as the compound, how does the IC50 [1] read?
A: 9.5 µM

Q: What about the IC50 [2] of the same compound?
A: 13.1 µM

Q: What about the IC50 [3] of the same compound?
A: 11 µM

Q: With `O=C1Nc2ccccc2/C1=C\C(=O)c1ccc([N+](=O)[O-])cc1` as the compound, how does the IC50 [1] read?
A: 14.3 µM

Q: What about the IC50 [2] of the same compound?
A: 18.2 µM

Q: And the IC50 [3]?
A: 18.4 µM

Q: `O=C1Nc2ccccc2/C1=C\C(=O)c1ccccc1Cl` was tested. Which IC50 [1] did it give?
A: 9.1 µM

Q: What about the IC50 [2] of the same compound?
A: 12.8 µM

Q: What about the IC50 [3] of the same compound?
A: 7.7 µM

Q: Which IC50 [1] does the source give for `O=C1Nc2ccccc2/C1=C\C(=O)c1ccc(Cl)cc1` here?
A: 6.9 µM

Q: What about the IC50 [2] of the same compound?
A: 8.5 µM

Q: What about the IC50 [3] of the same compound?
A: 6.5 µM

Q: For `O=C1Nc2ccccc2/C1=C\C(=O)c1ccccc1F`, which IC50 [1] is on record?
A: 11.8 µM

Q: And the IC50 [2]?
A: 17.4 µM

Q: What about the IC50 [3] of the same compound?
A: 8.5 µM

Q: Which results are given for `COc1ccc(C(=O)/C=C2/C(=O)Nc3ccccc32)cc1`?
A: IC50 [1]: 19.8 µM; IC50 [2]: 23.2 µM; IC50 [3]: 5.5 µM

Q: Which IC50 [1] does the source give for `Nc1c(Cl)cc(C(=O)/C=C2/C(=O)Nc3ccccc32)cc1Cl` here?
A: 8.5 µM

Q: And the IC50 [2]?
A: 11.9 µM

Q: What about the IC50 [3] of the same compound?
A: 6.2 µM

Q: How did the IC50 [1] turn out when `Nc1cccc(C(=O)/C=C2/C(=O)Nc3ccccc32)c1` was run?
A: 29.9 µM

Q: What about the IC50 [2] of the same compound?
A: 14.4 µM

Q: And the IC50 [3]?
A: 20.4 µM

Q: With `COc1cc(/C=C/C(=O)CC(=O)/C=C/c2ccc(O)c(OC)c2)ccc1O` [CURCUMIN] as the compound, how does the IC50 [1] read?
A: 19.5 µM

Q: And the IC50 [2]?
A: 26.2 µM

Q: What about the “growth inhibition (GI)” value [4] of the same compound?
A: Active

Q: And the Activity [7]?
A: Active

Q: What about the Activity [8] of the same compound?
A: Active

Q: And the Activity [9]?
A: Non-Toxic

Q: And the Activity [10]?
A: Non-Toxic

Q: And the Activity [11]?
A: Active

Q: `O=C1Nc2ccccc2/C1=C\C(=O)c1cccc(Cl)c1` was tested. Which IC50 [1] did it give?
A: 7.7 µM

Q: And the IC50 [2]?
A: 8.4 µM

Q: And the IC50 [3]?
A: 9.8 µM

Q: Which results are given for `C=CC(=O)Nc1cccc(C(=O)/C=C2/C(=O)Nc3ccccc32)c1`?
A: IC50 [1]: 3.6 µM; IC50 [2]: 5.7 µM; IC50 [3]: 3.2 µM; Activity [4]: Dose-dependent effect; growth inhibition (GI) ([4]; TDE = time-dependent effect): Tde; Activity [12]: Dose-dependent effect; Activity [13]: Dose-dependent effect; Activity [14]: Active; TGI [15]: Active; Activity [16]: Non-Toxic; Activity [17]: Non-Toxic; Activity [9]: Non-Toxic; Activity [10]: Non-Toxic; Activity [11]: Active
